The values below come from patent publication US9108973B2, “3,5-disubstituted alkynylbenzene compound and salt thereof” (Taiho Pharmaceutical Co., Ltd., priority 2012, dated 2015).

The experiment addresses purified recombinant human FGFR2 protein (Homo sapiens (Human), UniProt P21802). Description: Measurement of inhibitory effect on FGFR2 kinase activity. The class given is biochemical.

Like-named read-outs stand apart in the source and are kept apart here.

purified recombinant human FGFR2 protein, sequence (P21802 22-821): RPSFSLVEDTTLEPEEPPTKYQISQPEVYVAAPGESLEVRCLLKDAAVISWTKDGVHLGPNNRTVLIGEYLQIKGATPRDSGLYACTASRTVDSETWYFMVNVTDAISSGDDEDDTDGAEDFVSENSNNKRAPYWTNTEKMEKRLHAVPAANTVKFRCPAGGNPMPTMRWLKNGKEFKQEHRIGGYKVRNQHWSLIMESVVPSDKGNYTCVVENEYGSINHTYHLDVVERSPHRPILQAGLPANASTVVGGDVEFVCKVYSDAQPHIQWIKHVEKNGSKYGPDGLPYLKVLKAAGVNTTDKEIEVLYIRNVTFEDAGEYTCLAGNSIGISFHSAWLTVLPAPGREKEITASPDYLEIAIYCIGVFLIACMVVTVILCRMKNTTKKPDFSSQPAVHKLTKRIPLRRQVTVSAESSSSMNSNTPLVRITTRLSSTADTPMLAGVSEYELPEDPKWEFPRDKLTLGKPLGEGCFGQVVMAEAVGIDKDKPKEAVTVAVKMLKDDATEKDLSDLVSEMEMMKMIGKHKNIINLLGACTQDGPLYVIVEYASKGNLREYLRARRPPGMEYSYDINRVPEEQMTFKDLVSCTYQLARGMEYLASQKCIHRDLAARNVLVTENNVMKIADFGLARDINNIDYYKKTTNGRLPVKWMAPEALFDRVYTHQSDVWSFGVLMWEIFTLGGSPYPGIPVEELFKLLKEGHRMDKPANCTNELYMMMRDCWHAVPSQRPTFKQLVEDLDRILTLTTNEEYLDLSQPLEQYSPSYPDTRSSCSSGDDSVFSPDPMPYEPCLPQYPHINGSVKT
Description: Measurement of Inhibitory Effect on FGFR2 Kinase Activity
EDTA (final concentration: 30 mM) diluted with a separation buffer (Caliper Life Sciences, Inc.) was added thereto to terminate the kinase reaction. […] The level of phosphorylation was determined from the quantitative ratio.

Regarding `C=CC(=O)N1C[C@@H](n2cc(C#Cc3cc(OC)cc(OC)c3)c3c(N)ncnc32)C[C@H]1C(=O)OC` [Ex. Compound 66, (2S,4S)-methyl 1-acryloyl-4-(4-amino-5-((3,5-dimethoxyphenyl)ethynyl)-7H-pyrrolo[2,3-d]pyrimidin-7-yl)pyrrolidine-2-carboxylate], the IC50 (as a rule, the point on the concentration scale where inhibition reaches its midpoint) is below 0.0003 µM.

On to `CC(C)c1cc(C#Cc2nn([C@H]3CCN(C(=O)/C=C/CN(C)C)C3)c3ncnc(N)c23)cc(C(C)C)c1` [Ref. Ex. Compound 4, (S)-1-(3-(4-amino-3-((3,5-diisopropylphenyl)ethynyl)-1H-pyrazolo[3,4-d]pyrimidin-1-yl)pyrrolidin-1-yl)-4-(dimethylamino)but-2-en-1-one], for which, under “FGFR2 kinase, FL-Peptide 22 substrate, ATP 75 μM, 25° C. for 120 minutes”, the IC50 is above 10 µM.
